Reference: patent US10570117B2, “Phenylimidazole compound” (Otsuka Pharmaceutical Factory, Inc., priority 2015, dated 2020)
Values after ≈ are worked out from the molar mass of the structure shown. Like-named read-outs stand apart in the source and are kept apart here.

Key:
[1] = tested on: lipoprotein lipase (LPL) gene; experiment: LPL mRNA elevating action (RT-PCR quantification of LPL mRNA in C2Cl2 cells); type: cell-based, mouse; settings: Mus musculus, 24 h, compound 10 μM, ratio relative to the amount of LPL mRNA in cells with DMSO only, read-out: Rate of increase in LPL mRNA
Procedure: LPL mRNA Elevating Action
C2Cl2 cells (cell strain derived from striated muscle of mouse) were seeded in 96-well plates using a DMEM medium (Gibco) (containing 2 mM L-glutamine and 10% fetal bovine serum). After the cells were grown, the medium was removed. Subsequently, media obtained by adding dimethyl sulfoxide (DMSO) solutions of the compounds to the same medium as described above to a concentration of 10 μM were individually added to the cells and allowed to stand for 24 hours. The compound-containing media were removed, and the plates were washed with phosphate buffered saline. Thereafter, the remaining cells were lysed and subjected to a reverse transcription polymerase chain reaction (RT-PCR reaction) to obtain cDNA. Primers specific to lipoprotein lipase (LPL) gene, a necessary enzyme, etc., were added to the obtained cDNA. The mixture was set in 7500 Fast Real Time PCR System produced by Applied Biosystem to perform a PCR reaction (20 cycles) and the amount of LPL mRNA amplified was quantified. The LPL mRNA elevating action of each compound in the test cells was indicated as the ratio relative to the amount of LPL mRNA in cells allowed to stand in a medium to which only DMSO was added, with the amount being defined as 1.
As Comparative Example 1, a test was performed in the same manner as above, using a compound disclosed as the compound of Example 57 in WO2010/090200.

[2] = Solubility in gastric juice or intestinal juice model fluid (precipitation method using DMSO); type: physicochemical; settings: room temperature
How it was run: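 Compound in DMSO added to JP disintegration test fluid 1 (pH 1.2) or fluid 2 (pH 6.8) and shaken 24 h at room temperature. After filtration, dissolved concentration (μg/mL) determined by UV absorbance against compound calibration curves.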

[3] = pH 1.2, simulated gastric fluid, kinetic from dmso stock, 1st fluid for Disintegration Test of Japanese Pharmacopoeia (pH: 1.2), read-out: Solubility (μg/mL) 1st fluid
[4] = pH 6.8, kinetic from dmso stock, 2nd fluid for Disintegration Test of Japanese Pharmacopoeia (pH: 6.8), read-out: Solubility (μg/mL) 2nd fluid

SMILES	fold induction at 10 µM [1]	solubility at 24 h [2, 3]	solubility at 24 h [2, 4]	melting point	Solubility (μg/mL) 1st fluid ([2]; 1st fluid for Disintegration Test of Japanese Pharmacopoeia (pH: 1.2), 24 hours)
COc1cc(OCc2ncc(C(F)(F)F)cc2F)ccc1-c1[nH]c(-c2ccc(F)nc2)nc1Br [Example 255]	3.14	17.5 µg/mL (≈ 32.3 µM)	< 0.4 µg/mL	156 to 158 °C	
Fc1ccc(-c2ncc(-c3ccc(OCc4ncc(C(F)(F)F)cc4F)cc3)[nH]2)cn1 [Example 344]	1.83	85.9 µg/mL (≈ 199 µM)	4.6 µg/mL (≈ 10.6 µM)	174 to 177 °C	
COc1cc(OCc2ccc(C(F)(F)F)[n+]([O-])c2)ccc1-c1[nH]c(-c2ccc(F)nc2)nc1Cl [Example 315]	2.7	1.8 µg/mL (≈ 3.64 µM)	2.7 µg/mL (≈ 5.46 µM)	> 250 °C	
COc1cc(OCc2ncc(Cl)cc2Br)ccc1-c1[nH]c(-c2ccc(F)nc2)nc1Cl [Example 265]	3.36	2.2 µg/mL (≈ 4.2 µM)	5.8 µg/mL (≈ 11.1 µM)	195 to 199 °C	
COc1cc(OCn2cccn2)ccc1-c1nc(-c2ccc(Cl)nc2)[nH]c1Cl [Example 213]	2.04	79.7 µg/mL (≈ 191 µM)	2.1 µg/mL (≈ 5.04 µM)	166 to 169 °C	
COc1cc(OCc2ccc(C(F)(F)F)[n+]([O-])c2)ccc1-c1cnc(-c2ccc(F)nc2)[nH]1 [Example 314]	1.66	50.2 µg/mL (≈ 109 µM)	0.9 µg/mL (≈ 1.95 µM)	234 to 239 °C	
CCSc1ccc(-c2ncc(-c3ccc(OCc4ncc(C(F)(F)F)cc4F)cc3OC)[nH]2)cn1 [Example 357]	3.59	7.8 µg/mL (≈ 15.5 µM)	< 0.3 µg/mL	145 to 149 °C	
Fc1cc(C(F)(F)F)cnc1COc1ccc(-c2cnc(C3CC(F)(F)C3)[nH]2)cc1 [Example 393]	1.26	> 85 µg/mL	1.9 µg/mL (≈ 4.45 µM)	191 to 196 °C	
COc1ccc(-c2nc(-c3ccc(OCc4ccc(C(F)(F)F)cn4)cc3OC)c[nH]2)cn1 [Example 79]	1.42	10.6 µg/mL (≈ 23.2 µM)	1.2 µg/mL (≈ 2.63 µM)	187 to 189 °C	
COCn1cc(-c2ccc(OCc3ccc(C(F)(F)F)cn3)cc2OC)nc1-c1ccc(Cl)nc1 [Example 167]	2.23	100 µg/mL (≈ 199 µM)	0.4 µg/mL (≈ 0.792 µM)	138 to 140 °C	
COc1cc(OCc2ncc(C(F)(F)F)cc2F)ccc1-c1[nH]c(-c2ccc(F)nc2)nc1Cl [Example 281]	3.36	9.7 µg/mL (≈ 19.5 µM)	9.3 µg/mL (≈ 18.7 µM)	150 to 152 °C	
COc1cc(OCc2ccncc2C(F)(F)F)ccc1-c1cnc(-c2ccc(Cl)nc2)[nH]1 [Example 100]	3.05	15 µg/mL (≈ 32.5 µM)	< 0.3 µg/mL	220 to 228 °C	
COc1cc(OCc2ncccc2C(F)(F)F)ccc1-c1c[nH]c(-c2ccc(Cl)nc2)n1 [Example 43]	3.48	16.2 µg/mL (≈ 35.2 µM)	3.4 µg/mL (≈ 7.38 µM)	185 to 187 °C	
COc1cc(-c2[nH]c(C3CCC(F)(F)CC3)nc2Br)ccc1OCc1ccc(C(F)(F)F)cn1 [Example 198]	6.36	> 109 µg/mL	17.4 µg/mL (≈ 31.8 µM)	158 to 165 °C	
COc1cc(OCc2ncc(C)cc2C)ccc1-c1c[nH]c(-c2ccc(F)nc2)n1 [Example 118]	2.91	80.2 µg/mL (≈ 198 µM)	2.1 µg/mL (≈ 5.19 µM)	219 to 223 °C (dec.)	
COc1cc(OCc2ccc(C(F)(F)F)nc2)ccc1-c1nc(-c2ccc(Cl)nc2)n(C)c1C [Example 152, 2-chloro-5-[4-[2-methoxy-4-((6-(trifluoromethyl)pyridin-3-yl)methoxy)phenyl]-1,5-dimethyl-1H-imidazol-2-yl]pyridine]	3.3	> 98 µg/mL	< 0.3 µg/mL	185 to 188 °C	
COc1cc(-c2[nH]c(C3CCC(F)(F)C3)nc2Cl)ccc1OCc1ccc(C(F)(F)F)cn1 (stereo not drawn) [Example 189]	3.51	89 µg/mL (≈ 182 µM)	11.6 µg/mL (≈ 23.8 µM)	159 to 161 °C	
COc1cc(OCc2ccc(C(F)(F)F)nc2)c(C)cc1-c1cnc(-c2ccc(F)nc2)[nH]1 [Example 15]	4.27	7.8 µg/mL (≈ 17 µM)	< 8.1 µg/mL	199 to 201 °C (dec.)	

SMILES	fold induction at 10 µM [1]	solubility at 24 h [2, 3]	solubility at 24 h [2, 4]	melting point	Solubility (μg/mL) 1st fluid ([2]; 1st fluid for Disintegration Test of Japanese Pharmacopoeia (pH: 1.2), 24 hours)
COc1cc(OCc2ncc(C(F)(F)F)cc2F)ccc1-c1[nH]c(C(C)(C)C)nc1Cl [Example 383]	2.16	85.1 µg/mL (≈ 186 µM)	< 0.3 µg/mL	170 to 172 °C	
COc1cc(-c2cnc(C3CCC(F)(F)CC3)[nH]2)ccc1OCc1ccc(C(F)(F)F)nc1 [Example 16]	3.14	90.8 µg/mL (≈ 194 µM)	13.4 µg/mL (≈ 28.7 µM)	162 to 167 °C	
COc1cc(OCc2ccnc(C(F)(F)F)c2)ccc1-c1cnc(-c2ccc(Cl)nc2)[nH]1 [Example 107]	2.68	11.2 µg/mL (≈ 24.3 µM)	9.6 µg/mL (≈ 20.8 µM)	174 to 223 °C	
COc1cc(OC(C)c2ccc(C(F)(F)F)cn2)ccc1-c1nc(-c2ccc(F)nc2)[nH]c1Cl (stereo not drawn) [Example 207]	2.5		0.4 µg/mL (≈ 0.812 µM)	166 to 169 °C	83.4 µg/mL (≈ 169 µM)
COc1cc(OCc2ncccc2C(F)(F)F)ccc1-c1nc(-c2ccc(Cl)nc2)[nH]c1Cl [Example 221]	3.47	66.5 µg/mL (≈ 134 µM)	< 8.8 µg/mL	182 to 184 °C	
COc1cc(-c2[nH]c(CCC(F)(F)F)nc2Cl)ccc1OCc1ncc(C(F)(F)F)cc1F [Example 395]	2.61	3.8 µg/mL (≈ 7.63 µM)	< 0.4 µg/mL	116 to 119 °C	
COc1cc(OCc2ccc(S(=O)(=O)OC)cn2)ccc1-c1c[nH]c(-c2ccc(Cl)nc2)n1 [Example 44]	1.14	11.9 µg/mL (≈ 24.4 µM)	0.7 µg/mL (≈ 1.44 µM)	232 to 235 °C (dec.)	
COc1cc(OCc2ccc(C(F)(F)F)cn2)ccc1-c1[nH]c(-c2ccc(Cl)nc2)nc1I [Example 208]	4.72	24.9 µg/mL (≈ 42.4 µM)	< 0.4 µg/mL	204 to 208 °C (dec.)	
COc1cc(OCc2ccc(C(F)(F)F)cn2)ccc1-c1c(Cl)nc(-c2ccc(Cl)nc2)n1C [Example 309]	2.37	14.8 µg/mL (≈ 29.1 µM)	< 0.4 µg/mL	133 to 135 °C	
COc1cc(OCc2coc(C)n2)ccc1-c1cnc(C2CCC(F)(F)CC2)[nH]1 [Example 13]	2.31	> 81 µg/mL	74 µg/mL (≈ 183 µM)	52 to 63 °C	
COc1cc(OCc2ncccc2C(F)(F)F)ccc1-c1c[nH]c(-c2ccc(F)nc2)n1 [Example 121]	3.38	> 89 µg/mL	1.8 µg/mL (≈ 4.05 µM)	201 to 202 °C	
COc1cc(O)ccc1-c1c[nH]c(-c2ccc(F)nc2)n1 [Example 109, 4-[2-(6-fluoropyridin-3-yl)-1H-imidazol-5-yl]-3-methoxyphenol]	1.76	> 57 µg/mL	40 µg/mL (≈ 140 µM)	249 to 251 °C (dec.)	
COc1cc(OCc2ccc(C(F)(F)F)nc2)ccc1-c1nc(-c2ccc(F)nc2)[nH]c1Cl [Example 227]	5.08			176 to 177 °C	
COc1cc(OCc2ccc(C(F)(F)F)nc2)ccc1-c1nc(-c2ccc(Cl)nc2)[nH]c1Br [Example 222]	2.89			222 to 223 °C (dec.)	
COc1cc(OCc2cnc(Cl)cn2)ccc1-c1c[nH]c(-c2ccc(Cl)nc2)n1 [Example 20]	2.78			219 to 221 °C	
COc1cc(OCc2ncc(C(F)(F)F)cc2Br)ccc1-c1[nH]c(-c2ccc(F)nc2)nc1Br [Example 254]	2.71			148 to 170 °C	
COc1cc(OCc2cccnc2C(F)(F)F)ccc1-c1[nH]c(-c2ccc(F)nc2)nc1Cl [Example 287]	3.53			165 to 171 °C	
COc1cc(OCc2cccc(C(F)(F)F)n2)ccc1-c1[nH]c(-c2ccc(F)nc2)nc1Cl [Example 172]	3.12			189 to 191 °C	
